# Reference: patent US20240398814A1, “KRAS INHIBITOR AND HDAC INHIBITOR COMBINATION FOR THE TREATMENT OF CANCER” (Northwestern University, priority 2023, published 2024)
# Tests used:
# [1] = system: KL NSCLC GEMM; assay: In vivo entinostat and trametinib treatment, 42 days, tumor burden; parameters: species or system mouse; conditions: endpoint after 42 days; entinostat 10 mg/kg, trametinib 1 mg/kg, oral gavage
# Description: Bioluminescent imaging was performed biweekly using an IVIS Spectrum (Caliper Life Sciences) using Living Image software (Perkin Elmer). Mice were injected intraperitoneally with 150 mg/kg D-luciferin (Caliper Life Sciences), anesthetized with isoflurane and imaged both ventrally and dorsally 10 minutes post luciferin injection. The total lung photon flux for each animal is calculated by the combination of ventral and dorsal photon flux calculated within a region of interest (ROI) encompassing the thorax.
# Mice were intratracheally intubated with Lentivirus expressing Cre recombinase to initiate tumorigenesis and imaged […] starting 4 weeks post-Cre. Treatment was initiated at day 34 post-Cre (FIG. 5). In vivo treatment doses were selected based on publications (76-79). […]
# Total lung tumor burden was quantitated from H&E sections using Inform v2.1 image analysis software (Cambridge Research and Instrumentation) in a non-biased manner. […] The quantitation data from this analysis was then used to calculate the percentage of tumor area as normalized to total lung area (tumor area+normal lung area).
# Quantitation of each individual tumor was measured from H&E sections using morphometric analysis in Panoramic viewer software (Perkin Elmer), which calculates the size of each identified tumor by area in squared microns. […]
# [2] = system: A549 cells; assay: qRT-PCR of chemokine gene expression in A549 cells; type: cell-based, human; conditions: 2 uM entinostat 3 days, 5 uM BRD3308 4 days
# Description: All cell lines were incubated at 37° C. and were maintained in an atmosphere containing 5% CO2. Cells were tested for Mycoplasma (Lonza) using manufacturer's conditions and were deemed negative. Cells were grown in Dulbecco's modified Eagles medium (DMEM) plus 10% fetal bovine serum (Gibco) and were continuously maintained under antibiotic selection for stable cell lines. Proliferation assays were performed by plating 2×10^3 cells per well of a 6-well plate, and cells were counted 5 days post-plating. Drug treatments were carried out using the following doses: entinostat 1 uM or 2 uM, RGFP966 10uM, TSA 0.5 uM, BRD3308 5 uM, trametinib 5 nM, 10 nM, and 25 nM, and MRTX1133 10 nM, 25 nM, and 50 nM, as indicated for the indicated treatment lengths. Media was changed and fresh drug added every 2 days.
# mRNA was prepared using the Quick-RNA Miniprep kit (Zymo Research), including DNase treatment. cDNA was synthesized from 2 μg of RNA using SuperScript III (Life Technologies), and qPCR was carried out with diluted cDNA, appropriate primers, and SYBR Green PCR master mix (ThermoFisher Scientific) using a C1000 Thermal Cycler (BioRad). Relative mRNA levels were calculated using the delta Ct method, using Tbp as an internal control.
# [3] = system: human KRAS, LKB1 mutant lung cancer cells; assay: FGFR1 resistance mechanism in human KRAS, LKB1 mutant lung cancer cells; type: cell-based; conditions: 9 days of trametinib treatment, entinostat treatment days 3-9 (6 days total)
smiles,measurement,setting,value
Nc1ccccc1NC(=O)c1ccc(CNC(=O)OCc2cccnc2)cc1 [entinostat],tumor burden quantitated from H&E-stained sections (tumor area as percentage of total lung area),[1],neither entinostat nor trametinib alone impacted tumor burden
same,chemokine (SASP) gene expression,[2],induced the expression of these genes
same,impact of Trametinib on the FGFR1 resistance mechanism,[3],reverses the impact of Trametinib on the FGFR1 resistance mechanism
